PubChem BioAssay AID2060622 (Molecular Pharmacology Branch, DTP, NCI, 2025)
pIC50: −log10 of the molar value.

Tested on: 242566-281-R-J2-PDC complex spheroid viability
Assay: Anticancer human tumor 242566-281-R-J2-PDC patient-derived pancreatic carcinoma cell line growth inhibition [CLK]
Conditions: for pIC50: curve of first compound; for viability, T/C: stronger effect = lower value
Summary of the method: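 Multi-cell-type spheroids combined patient-derived tumor cells with HUVEC endothelial cells and human mesenchymal stem cells. Paired agents were dosed in half-log steps down from about clinical Cmax, or from 10 microM where Cmax was unknown.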

[1] = second compound 0.0316 µM, first compound 0.0316 µM
[2] = second compound 0.0316 µM, first compound 0.1 µM
[3] = second compound 0.0316 µM, first compound 0.316 µM
[4] = second compound 0.0316 µM, first compound 1 µM
[5] = second compound 0.1 µM, first compound 0.0316 µM
[6] = second compound 0.1 µM, first compound 0.1 µM
[7] = second compound 0.1 µM, first compound 0.316 µM
[8] = second compound 0.1 µM, first compound 1 µM
[9] = second compound 0.316 µM, first compound 0.0316 µM
[10] = second compound 0.316 µM, first compound 0.1 µM
[11] = second compound 0.316 µM, first compound 0.316 µM
[12] = second compound 0.316 µM, first compound 1 µM
[13] = second compound 1 µM, first compound 0.0316 µM
[14] = second compound 1 µM, first compound 0.1 µM
[15] = second compound 1 µM, first compound 0.316 µM
[16] = second compound 1 µM, first compound 1 µM
[17] = second compound 3.16 µM, first compound 0.0316 µM
[18] = second compound 3.16 µM, first compound 0.1 µM
[19] = second compound 3.16 µM, first compound 0.316 µM
[20] = second compound 3.16 µM, first compound 1 µM
[21] = second compound 10 µM, first compound 0.0316 µM
[22] = second compound 10 µM, first compound 0.1 µM
[23] = second compound 10 µM, first compound 0.316 µM
[24] = second compound 10 µM, first compound 1 µM
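Further: spheroids exposed to compounds for 7 days before readout.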
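Wherever viability, T/C is given: 100% = DMSO vehicle control wells.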

C=CC(=O)Nc1cc(Nc2nccc(-c3cn(C)c4ccccc34)n2)c(OC)cc1N(C)CCN(C)C + CNC(=O)c1ccc(Nc2nc(OC3CCCC3)c3c(-c4ccc5nc(C)oc5c4)c[nH]c3n2)c(OC)c1
pIC50 (second compound 0.0316 µM): < 6.52 | pIC50 (second compound 0.1 µM): < 6.52 | pIC50 (second compound 0.316 µM): < 6.52 | pIC50 (second compound 1 µM): < 6.52 | pIC50 (second compound 3.16 µM): 8.57 | pIC50 (second compound 10 µM): 8.50 | viability, T/C (second compound 0.0316 µM, first compound 0.000949 µM): 83.7% | viability, T/C (second compound 0.0316 µM, first compound 0.003 µM): 97% | viability, T/C (second compound 0.0316 µM, first compound 0.00949 µM): 101% | viability, T/C (second compound 0.0316 µM, first compound 0.03 µM): 108% | viability, T/C (second compound 0.0316 µM, first compound 0.0949 µM): 110% | viability, T/C (second compound 0.0316 µM, first compound 0.3 µM): 92.8% | viability, T/C (second compound 0.1 µM, first compound 0.000949 µM): 96.1% | viability, T/C (second compound 0.1 µM, first compound 0.003 µM): 81.7% | viability, T/C (second compound 0.1 µM, first compound 0.00949 µM): 80.1% | viability, T/C (second compound 0.1 µM, first compound 0.03 µM): 99.5% | viability, T/C (second compound 0.1 µM, first compound 0.0949 µM): 95.5% | viability, T/C (second compound 0.1 µM, first compound 0.3 µM): 81.4% | viability, T/C (second compound 0.316 µM, first compound 0.000949 µM): 89.4% | viability, T/C (second compound 0.316 µM, first compound 0.003 µM): 76% | viability, T/C (second compound 0.316 µM, first compound 0.00949 µM): 72.2% | viability, T/C (second compound 0.316 µM, first compound 0.03 µM): 77.6% | viability, T/C (second compound 0.316 µM, first compound 0.0949 µM): 81.4% | viability, T/C (second compound 0.316 µM, first compound 0.3 µM): 80.2% | viability, T/C (second compound 1 µM, first compound 0.000949 µM): 69.7% | viability, T/C (second compound 1 µM, first compound 0.003 µM): 59% | viability, T/C (second compound 1 µM, first compound 0.00949 µM): 58.9% | viability, T/C (second compound 1 µM, first compound 0.03 µM): 61.8% | viability, T/C (second compound 1 µM, first compound 0.0949 µM): 63.7% | viability, T/C (second compound 1 µM, first compound 0.3 µM): 57.5% | viability, T/C (second compound 3.16 µM, first compound 0.000949 µM): 55.9% | viability, T/C (second compound 3.16 µM, first compound 0.003 µM): 50% | viability, T/C (second compound 3.16 µM, first compound 0.00949 µM): 45.7% | viability, T/C (second compound 3.16 µM, first compound 0.03 µM): 51.9% | viability, T/C (second compound 3.16 µM, first compound 0.0949 µM): 46.4% | viability, T/C (second compound 3.16 µM, first compound 0.3 µM): 48.8% | viability, T/C (second compound 10 µM, first compound 0.000949 µM): 49.1% | viability, T/C (second compound 10 µM, first compound 0.003 µM): 51.2% | viability, T/C (second compound 10 µM, first compound 0.00949 µM): 51.1% | viability, T/C (second compound 10 µM, first compound 0.03 µM): 47.7% | viability, T/C (second compound 10 µM, first compound 0.0949 µM): 43.1% | viability, T/C (second compound 10 µM, first compound 0.3 µM): 44.9%

CCN1CCN(Cc2ccc(Nc3ncc(F)c(-c4cc(F)c5nc(C)n(C(C)C)c5c4)n3)nc2)CC1 + CNC(=O)c1ccc(Nc2nc(OC3CCCC3)c3c(-c4ccc5nc(C)oc5c4)c[nH]c3n2)c(OC)c1
pIC50 (second compound 0.0316 µM): < 6.00 | pIC50 (second compound 0.1 µM): < 6.00 | pIC50 (second compound 0.316 µM): < 6.00 | pIC50 (second compound 1 µM): < 6.00 | pIC50 (second compound 3.16 µM): < 6.00 | pIC50 (second compound 10 µM): < 6.00 | viability, T/C (second compound 0.0316 µM, first compound 0.00316 µM): 103% | viability, T/C (second compound 0.0316 µM, first compound 0.01 µM): 106% | viability, T/C [1]: 92% | viability, T/C [2]: 126% | viability, T/C [3]: 136% | viability, T/C [4]: 154% | viability, T/C (second compound 0.1 µM, first compound 0.00316 µM): 76.5% | viability, T/C (second compound 0.1 µM, first compound 0.01 µM): 109% | viability, T/C [5]: 95.7% | viability, T/C [6]: 104% | viability, T/C [7]: 122% | viability, T/C [8]: 153% | viability, T/C (second compound 0.316 µM, first compound 0.00316 µM): 91.6% | viability, T/C (second compound 0.316 µM, first compound 0.01 µM): 98% | viability, T/C [9]: 79.2% | viability, T/C [10]: 117% | viability, T/C [11]: 125% | viability, T/C [12]: 156% | viability, T/C (second compound 1 µM, first compound 0.00316 µM): 74.5% | viability, T/C (second compound 1 µM, first compound 0.01 µM): 86.8% | viability, T/C [13]: 84.8% | viability, T/C [14]: 96.2% | viability, T/C [15]: 134% | viability, T/C [16]: 142% | viability, T/C (second compound 3.16 µM, first compound 0.00316 µM): 63.2% | viability, T/C (second compound 3.16 µM, first compound 0.01 µM): 61% | viability, T/C [17]: 72.1% | viability, T/C [18]: 85.7% | viability, T/C [19]: 118% | viability, T/C [20]: 123% | viability, T/C (second compound 10 µM, first compound 0.00316 µM): 55.1% | viability, T/C (second compound 10 µM, first compound 0.01 µM): 59.8% | viability, T/C [21]: 75.4% | viability, T/C [22]: 80.5% | viability, T/C [23]: 101% | viability, T/C [24]: 124%

Nc1ccccc1NC(=O)c1ccc(CNC(=O)OCc2cccnc2)cc1 + CNC(=O)c1ccc(Nc2nc(OC3CCCC3)c3c(-c4ccc5nc(C)oc5c4)c[nH]c3n2)c(OC)c1
pIC50 (second compound 0.0316 µM): 5.11 | pIC50 (second compound 0.1 µM): 5.12 | pIC50 (second compound 0.316 µM): 5.24 | pIC50 (second compound 1 µM): 5.57 | pIC50 (second compound 3.16 µM): 5.78 | pIC50 (second compound 10 µM): > 7.50 | viability, T/C [1]: 86.9% | viability, T/C [2]: 101% | viability, T/C [3]: 101% | viability, T/C [4]: 149% | viability, T/C (second compound 0.0316 µM, first compound 3.16 µM): 116% | viability, T/C (second compound 0.0316 µM, first compound 10 µM): 32.2% | viability, T/C [5]: 81.1% | viability, T/C [6]: 104% | viability, T/C [7]: 103% | viability, T/C [8]: 128% | viability, T/C (second compound 0.1 µM, first compound 3.16 µM): 109% | viability, T/C (second compound 0.1 µM, first compound 10 µM): 32.1% | viability, T/C [9]: 89.6% | viability, T/C [10]: 78% | viability, T/C [11]: 85.6% | viability, T/C [12]: 94.7% | viability, T/C (second compound 0.316 µM, first compound 3.16 µM): 80.8% | viability, T/C (second compound 0.316 µM, first compound 10 µM): 22.2% | viability, T/C [13]: 75.7% | viability, T/C [14]: 70.2% | viability, T/C [15]: 61.8% | viability, T/C [16]: 73.4% | viability, T/C (second compound 1 µM, first compound 3.16 µM): 46.8% | viability, T/C (second compound 1 µM, first compound 10 µM): 14% | viability, T/C [17]: 60.4% | viability, T/C [18]: 52.9% | viability, T/C [19]: 52.5% | viability, T/C [20]: 63.9% | viability, T/C (second compound 3.16 µM, first compound 3.16 µM): 40.5% | viability, T/C (second compound 3.16 µM, first compound 10 µM): 10.3% | viability, T/C [21]: 50% | viability, T/C [22]: 44.4% | viability, T/C [23]: 48.6% | viability, T/C [24]: 54% | viability, T/C (second compound 10 µM, first compound 3.16 µM): 37.6% | viability, T/C (second compound 10 µM, first compound 10 µM): 7.66%
